Test results from patent publication US7699995B2, “Water treatment method” (priority 2006, dated 2010).
≈ marks a conversion by molar mass, not a printed value.

Tests used:
bacteria and fungi = experiment: MIC pH 9.0 versus pH 7.1, all nine organisms; type: cell-based; conditions: over the nine organisms tested
Procedure: Minimum inhibitory concentration (MIC) studies were conducted to determine the lowest level of biocide required to inhibit growth of bacteria and fungi. Tests were conducted in 96-well microtiter plates. Biocides were added to growth media in the plates and serially diluted to obtain a range of concentrations. Tests were conducted in one-half strength trypticase soy broth (TSB; adjusted to pH 7.1 or pH 9.0). Bacteria and fungi were added to samples at 10^6 colony forming units per ml and incubated at 30° C. for three days. MIC values were determined visually on a growth no-growth basis.

Fungi = experiment: MIC, average over fungi; type: cell-based
Procedure: (§1) Minimum inhibitory concentration (MIC) studies were conducted to determine the lowest level of biocide required to inhibit growth of bacteria and fungi. Tests were conducted in 96-well microtiter plates. Biocides were added to growth media in the plates and serially diluted to obtain a range of concentrations. Bacterial tests were conducted in trypticase soy broth (TSB; pH 7) using an overnight inoculum added at 10^6 colony forming units per ml. […] Fungal tests were conducted in malt extract broth (MEB; pH 4.7) using an 5-7 day inoculum added at 10^4 colony forming units per ml.

[1] = Stability in high pH metalworking fluid use dilutions (HPLC); type: physicochemical; conditions: for % MIT Remaining: 25° C.
Procedure: Stability studies were conducted in three high pH metalworking fluid use dilutions to compare the persistence of MIT biocide versus CMIT biocide, tested alone and in combination with MCC). Aliquots of the use-diluted fluids were dosed with 17.5 ppm active CMIT/MIT and CMIT/MIT/MCC and stored at 25° C. Biocide concentrations were determined at time zero and weekly using high performance liquid chromatography (HPLC) analysis.

Geotrichum candidum = experiment: MIC, fungi, MEB pH 4.7; type: cell-based; conditions: 168 h
Procedure: as §1

Acremonium strictum = experiment: MIC, fungi, MEB pH 4.7; type: cell-based; conditions: Sarocladium strictum, 168 h
Procedure: as §1

Field Isolate (fungi) = experiment: MIC, fungi, MEB pH 4.7; type: cell-based; conditions: 168 h, MEB pH 4.7, 25° C., 7 days
Procedure: as §1

Fusarium solani = experiment: MIC, fungi, MEB pH 4.7; type: cell-based; conditions: 168 h
Procedure: as §1

Fusarium sp. = experiment: MIC, fungi, MEB pH 4.7; type: cell-based; conditions: 168 h, MEB pH 4.7, 25° C., 7 days
Procedure: as §1

Rhodotorula rubra = experiment: MIC, fungi, MEB pH 4.7; type: cell-based; conditions: 168 h
Procedure: as §1

Trichosporon sp. = experiment: MIC, fungi, MEB pH 4.7; type: cell-based; conditions: 168 h
Procedure: as §1

Candida albicans = experiment: MIC, fungi, MEB pH 4.7; type: cell-based; conditions: 168 h
Procedure: as §1

With `Cn1sccc1=O` [MI, 2-methyl-4-isothiazolin-3-one] the “change of MIC at pH 9.0 versus pH 7.1” value (bacteria and fungi) was ≤ 2 ×, the “MI: CMI + MI MIC Ratio” value (Fungi; fungi, ratio of average MICs) was 46.8 and the MIC (Fungi; read-out: MIC, Average) was 63 µg/mL (≈ 547 µM). For the same molecule, the “% MIT Remaining” value ([1]; Soluble Fluid 1 (pH 9.2), 2 wk) was 95%, the “% MIT Remaining” value ([1]; Soluble Fluid 1 (pH 9.2), 4 wk) was 100% and the “% MIT Remaining” value ([1]; Soluble Fluid 3 (pH 9.3), 2 wk) was 95%. The “% MIT Remaining” value ([1]; Soluble Fluid 3 (pH 9.3), 4 wk) was 100%, the “% MIT Remaining” value ([1]; Synthetic Fluid 2 (pH 9.4), 1 wk) was 92% and the “% MIT Remaining” value ([1]; Synthetic Fluid 2 (pH 9.4), 3 wk) was 94%. The biocide active retained ([1]; after 3-4 weeks in all three high pH use-diluted fluids) was “greater than 90%”, the MIC (Geotrichum candidum) was 250 µg/mL (≈ 2170 µM) and the MIC (Acremonium strictum) was 16 µg/mL (≈ 139 µM). For the same molecule, the MIC (Field Isolate (fungi); first listed) was 8 µg/mL (≈ 69.5 µM), the MIC (Field Isolate (fungi); second listed) was 21 µg/mL (≈ 182 µM) and the MIC (Field Isolate (fungi); third listed) was 6 µg/mL (≈ 52.1 µM). For the same molecule, the MIC (Fusarium solani) was 13 µg/mL (≈ 113 µM), the MIC (Fusarium sp.) was 25 µg/mL (≈ 217 µM) and the MIC (Rhodotorula rubra) was 125 µg/mL (≈ 1090 µM). It also gave an MIC (Trichosporon sp.) of 63 µg/mL (≈ 547 µM) and an MIC (Candida albicans) of 100 µg/mL (≈ 868 µM).
